Measured values as given in PMC7758879, “Tyramine Acts Downstream of Neuronal XBP-1s to Coordinate Inter-tissue UPR^ER Activation and Behavior in C. elegans” (Developmental Cell, 2020).

Target: T1, OCTR-1 (Caenorhabditis elegans, UniProt Q7JP62)
T1 construct: cDNA in KSM vector, cRNA injected into Xenopus laevis oocytes; co-expressed with mouse GIRK1/GIRK2 as reporter
T1 sequence (Q7JP62 1-406): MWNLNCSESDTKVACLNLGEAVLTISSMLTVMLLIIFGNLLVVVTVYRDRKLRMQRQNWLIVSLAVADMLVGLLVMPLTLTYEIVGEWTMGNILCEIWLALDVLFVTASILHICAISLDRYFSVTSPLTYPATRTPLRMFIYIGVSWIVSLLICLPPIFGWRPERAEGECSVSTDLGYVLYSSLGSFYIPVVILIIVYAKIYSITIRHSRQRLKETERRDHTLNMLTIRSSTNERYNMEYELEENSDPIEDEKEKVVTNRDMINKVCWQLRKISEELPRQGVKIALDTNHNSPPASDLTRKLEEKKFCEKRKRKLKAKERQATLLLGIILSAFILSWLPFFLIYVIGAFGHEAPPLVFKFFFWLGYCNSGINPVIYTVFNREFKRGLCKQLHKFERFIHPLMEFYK
Assay: two-electrode voltage clamp, GIRK1/[…] current, Xenopus oocytes
Assay type: cell-based

Structure (SMILES) | EC50
NCCc1ccc(O)cc1 [Tyr, tyramine] | 12.9 µM
NC[C@H](O)c1ccc(O)cc1 [Oct, octopamine] | 0.114 µM
